Reference: patent publication EP1948196B1, “USE OF TETRAORGANOSILICON COMPOUNDS” (Salama, Zoser B., priority 2005, dated 2007)
In brackets after ≈: the same amount, converted by molar mass. Read-outs that look alike come from different tables or passages of the source. Numbered stars: 1 amine (or outer) side, 2 acyl side, 3 side chain; on linkers, the order of the positions; unused ones are H or OH. Bridge positions count the residues as written; N and C are the ends. Peptide text beside a SMILES is read from it. I, II: the chains in the order shown. X2 = c1ccc([Si](O[*:1])(O[*:2])c2ccccc2)cc1; OSiEt2O = CC[Si](CC)(O[*:1])O[*:2]

Legend:
[1] = system: Plattenepihtelkarzinomen oder Plasmozytomen; test: Effect against metastasis in rats; assay type: in vivo; conditions: in Ratten
Seminome = test: Effect on seminomas
Hepatitis B-Viren = test: Antiviral effect; conditions: in particular as vesicles holding antisense constructs
Angiosarkome [2] = test: Effect on angiosarcomas
Lymphome = test: Effect on lymphomas
Rhino-Viren = test: Antiviral effect; conditions: in particular as vesicles holding antisense constructs
Osteosarkome = test: Effect on osteosarcomas
Angiosarkome [3] = test: Effect on angiosarcomas; remark: listed apart in the source
colo205 (Kofon-Karzinom) = test: MTT test, triplicate, two-fold dilutions; assay type: cell-based; conditions: Homo sapiens
Description: (§1) Die Silan wurden in Ethanol aufgelöst und in Zellkulturmedien in Konzentrationen von bis zu 500 µg/ml resuspendiert. Es wurden MTT Tests in dreifacher Ausführung durchgeführt, für welche doppelte Lösungen (7 Schritte) und colo205 (Kofon-Karzinom), BxPC3 (pankreatisches Adenokarzinom) sowie T47D (Brustkrebs) benutzt wurden.

T47D (Brustkrebs) = test: MTT test, triplicate, two-fold dilutions; assay type: cell-based; conditions: Homo sapiens, T47D, read-out: IC50 T47D
Description: as §1

[4] = system: BxPC3 (pankreatisches Adenokarzinom); test: MTT test, triplicate, two-fold dilutions; assay type: cell-based; conditions: Homo sapiens
Description: as §1

[5] = COLO 205, read-out: IC50 Colo205
[6] = COLO 205, up to 500 µg/ml, read-out: IC50 Colo205
[7] = BXPC-3, up to 500 µg/ml, read-out: IC50 BxPC3

Question: How did the “Wirkung gegen die Metastasierung von Plattenepihtelkarzinomen oder Plasmozytomen” value [1] turn out when CCCCCCCC(=O)O[Si](CC)(CC)OC(=O)CCCCCCC [Di(octanoyloxy)diethylsilan] was run?
Answer: The value was “zeigen eine Wirkung”.

Question: Which “Wirkung auf Seminome” value (Seminome) does the source give for CCCCCCCCCCCCC(=O)O[Si](CCC)(CCC)OC(=O)CCCCCCCCCCCC [Di(tridecanoyloxy)dipropylsilan] here?
Answer: Its value is “zeigen eine Wirkung”.

Question: And the “Wirkung gegen Hepatitis B-Viren” value (Hepatitis B-Viren)?
Answer: The value was “zeigen eine Wirkung”.

Question: What about the “Wirkung gegen Angiosarkome” value (Angiosarkome [2]) of the same compound?
Answer: The value was “zeigen eine Wirkung”.

Question: With Diethyl bis(biphenylalanyl)silylester as the compound, how does the “Wirkung auf Lymphome” value (Lymphome) read?
Answer: The value was “zeigen eine Wirkung”.

Question: For CCCCCCCCCCCCCC(=O)O[Si](CCC)(CCC)OC(=O)CCCCCCCCCCCCC [Di(tetradecanoyloxy)dipropylsilan], which “Wirkung auf Seminome” value (Seminome) is on record?
Answer: Its value is “zeigen eine Wirkung”.

Question: And the “Wirkung gegen Hepatitis B-Viren” value (Hepatitis B-Viren)?
Answer: The value was “zeigen eine Wirkung”.

Question: And the “Wirkung gegen Angiosarkome” value (Angiosarkome [2])?
Answer: Its value is “zeigen eine Wirkung”.

Question: CCCCCCCCCCCCCCCCC(=O)O[Si](OC(=O)CCCCCCCCCCCCCCCC)(c1ccccc1)c1ccccc1 [Di(heptadecanoyloxy)diphenylsilan] was tested. Which “Wirkung gegen Rhino-Viren” value (Rhino-Viren) did it give?
Answer: The value was “zeigen eine Wirkung”.

Question: And the “Wirkung auf Osteosarkome” value (Osteosarkome)?
Answer: Its value is “zeigen eine Wirkung”.

Question: CCCCCCCCCCCCCCC(=O)O[Si](C)(C)OC(=O)CCCCCCCCCCCCCC [Di(pentadecanoyloxy)dimethylsilan] was tested. Which “Wirkung gegen die Metastasierung von Plattenepihtelkarzinomen oder Plasmozytomen” value [1] did it give?
Answer: Its value is “zeigen eine Wirkung”.

Question: CC(C)[C@H](N)C(=O)N[C@H](C(=O)N[C@H](C(=O)N[C@H](C(=O)N[C@H](C(=O)N[C@H](C(=O)N[C@H](C(=O)O[Si](OC(=O)[C@@H](NC(=O)[C@@H](NC(=O)[C@@H](NC(=O)[C@@H](NC(=O)[C@@H](NC(=O)[C@@H](NC(=O)[C@@H](N)C(C)C)C(C)C)C(C)C)C(C)C)C(C)C)C(C)C)C(C)C)(c1ccccc1)c1ccccc1)C(C)C)C(C)C)C(C)C)C(C)C)C(C)C)C(C)C [Diphenyl bis(heptavalyl)silylester] (I: H-VVVVVVV / II: H-VVVVVVV; linker I:C-II:C via X2) was tested. Which “Wirkung gegen Angiosarkome” value (Angiosarkome [3]) did it give?
Answer: The value was “zeigen eine Wirkung”.

Question: With CCCCCCCCCC(=O)O[Si](CC)(CC)OC(=O)CCCCCCCCC [Si 12, Di (decanoyloxy) diethylsilan] as the compound, how does the “Wirkung gegen die Metastasierung von Plattenepihtelkarzinomen oder Plasmozytomen” value [1] read?
Answer: The value was “zeigen eine Wirkung”.

Question: What about the IC50 (colo205 (Kofon-Karzinom); [5]) of the same compound?
Answer: The IC50 was 300 µg/mL (≈ 700 µM).

Question: And the IC50 (T47D (Brustkrebs))?
Answer: The IC50 was 600 µg/mL (≈ 1400 µM).

Question: What about the IC50 ([4]; BXPC-3, read-out: IC50 BxPC3) of the same compound?
Answer: Its IC50 is 140 µg/mL (≈ 327 µM).

Question: For CC(C)[C@H](N)C(=O)N[C@H](C(=O)N[C@H](C(=O)N[C@H](C(=O)N[C@H](C(=O)O[Si](OC(=O)[C@@H](NC(=O)[C@@H](NC(=O)[C@@H](NC(=O)[C@@H](NC(=O)[C@@H](N)C(C)C)C(C)C)C(C)C)C(C)C)C(C)C)(c1ccccc1)c1ccccc1)C(C)C)C(C)C)C(C)C)C(C)C [Diphenyl bis(pentavalyl)silylester], which “Wirkung gegen Angiosarkome” value (Angiosarkome [3]) is on record?
Answer: The value was “zeigen eine Wirkung”.

Question: With CCCCCCCCCCC(=O)O[Si](C)(C)OC(=O)CCCCCCCCCC [Si 2, Di (undecanoyloxy) dimethylsilan] as the compound, how does the “Wirkung gegen die Metastasierung von Plattenepihtelkarzinomen oder Plasmozytomen” value [1] read?
Answer: Its value is “zeigen eine Wirkung”.

Question: And the IC50 (colo205 (Kofon-Karzinom); [6])?
Answer: Its IC50 is 125 µg/mL (≈ 292 µM).

Question: And the IC50 (T47D (Brustkrebs); up to 500 µg/ml)?
Answer: The IC50 was 125 µg/mL (≈ 292 µM).

Question: And the IC50 [4, 7]?
Answer: The IC50 was 80 µg/mL (≈ 187 µM).

Question: Which “Wirkung gegen Angiosarkome” value (Angiosarkome [3]) does the source give for CC(C)[C@H](N)C(=O)N[C@H](C(=O)N[C@H](C(=O)N[C@H](C(=O)N[C@H](C(=O)N[C@H](C(=O)N[C@H](C(=O)N[C@H](C(=O)O[Si](OC(=O)[C@@H](NC(=O)[C@@H](NC(=O)[C@@H](NC(=O)[C@@H](NC(=O)[C@@H](NC(=O)[C@@H](NC(=O)[C@@H](NC(=O)[C@@H](N)C(C)C)C(C)C)C(C)C)C(C)C)C(C)C)C(C)C)C(C)C)C(C)C)(c1ccccc1)c1ccccc1)C(C)C)C(C)C)C(C)C)C(C)C)C(C)C)C(C)C)C(C)C [Diphenyl bis(octavalyl)silylester] (I: H-VVVVVVVV / II: H-VVVVVVVV; linker I:C-II:C via X2) here?
Answer: The value was “zeigen eine Wirkung”.

Question: For CCCCCCCCCCCC(=O)O[Si](CCC)(CCC)OC(=O)CCCCCCCCCCC [Di(dodecanoyloxy)dipropylsilan], which “Wirkung auf Seminome” value (Seminome) is on record?
Answer: The value was “zeigen eine Wirkung”.

Question: And the “Wirkung gegen Hepatitis B-Viren” value (Hepatitis B-Viren)?
Answer: Its value is “zeigen eine Wirkung”.

Question: And the “Wirkung gegen Angiosarkome” value (Angiosarkome [2])?
Answer: Its value is “zeigen eine Wirkung”.

Question: Which results are given for CCCCCCCCCCC(=O)O[Si](CC)(CC)OC(=O)CCCCCCCCCC [Si 4, Di (undecanoyloxy) diethylslan]?
Answer: Wirkung gegen die Metastasierung von Plattenepihtelkarzinomen oder Plasmozytomen [1]: zeigen eine Wirkung; IC50 (colo205 (Kofon-Karzinom); [6]): 200 µg/mL (≈ 438 µM); IC50 (T47D (Brustkrebs); up to 500 µg/ml): 180 µg/mL (≈ 394 µM); IC50 [4, 7]: 100 µg/mL (≈ 219 µM)

Question: How did the “Wirkung gegen die Metastasierung von Plattenepihtelkarzinomen oder Plasmozytomen” value [1] turn out when CCCCCCCCCCCCC(=O)O[Si](C)(C)OC(=O)CCCCCCCCCCCC [Si 3, Di (tridecanoyloxy) dimethylsilan] was run?
Answer: The value was “zeigen eine Wirkung”.

Question: And the IC50 (colo205 (Kofon-Karzinom); [5])?
Answer: Its IC50 is 230 µg/mL (≈ 474 µM).

Question: What about the IC50 (T47D (Brustkrebs)) of the same compound?
Answer: Its IC50 is 80 µg/mL (≈ 165 µM).

Question: And the IC50 ([4]; BXPC-3, read-out: IC50 BxPC3)?
Answer: Its IC50 is 80 µg/mL (≈ 165 µM).

Question: What does the source list for CCCCCCCCCCC(=O)O[Si](OC(=O)CCCCCCCCCC)(c1ccccc1)c1ccccc1 [Di(undecanoyloxy)diphenylsilan]?
Answer: Wirkung gegen Rhino-Viren (Rhino-Viren): zeigen eine Wirkung; Wirkung auf Osteosarkome (Osteosarkome): zeigen eine Wirkung

Question: Which results are given for CCCCCCCCCCCCCCC(=O)O[Si](CCC)(CCC)OC(=O)CCCCCCCCCCCCCC [Di(pentadecanoyloxy)dipropylsilan]?
Answer: Wirkung auf Seminome (Seminome): zeigen eine Wirkung; Wirkung gegen Hepatitis B-Viren (Hepatitis B-Viren): zeigen eine Wirkung; Wirkung gegen Angiosarkome (Angiosarkome [2]): zeigen eine Wirkung

Question: CCCCCCCCC(=O)O[Si](CC)(CC)OC(=O)CCCCCCCC [Di(nonanoyloxy)diethyisilan] was tested. Which “Wirkung gegen die Metastasierung von Plattenepihtelkarzinomen oder Plasmozytomen” value [1] did it give?
Answer: Its value is “zeigen eine Wirkung”.

Question: Which “Wirkung gegen Angiosarkome” value (Angiosarkome [3]) does the source give for CC[Si](CC)(OC(=O)CNC(=O)CNC(=O)CNC(=O)CNC(=O)CNC(=O)CNC(=O)CNC(=O)CN)OC(=O)CNC(=O)CNC(=O)CNC(=O)CNC(=O)CNC(=O)CNC(=O)CNC(=O)CN [Diethyl bis(octablycyl)silylester] (I: H-GGGGGGGG / II: H-GGGGGGGG; linker I:C-II:C via OSiEt2O) here?
Answer: The value was “zeigen eine Wirkung”.

Question: With CC/C=C\C/C=C\C/C=C\CCCCCCCC(=O)O[Si](OC(=O)CCCCCCC/C=C\C/C=C\C/C=C\CC)(c1ccccc1)c1ccccc1 [Di(linolenoylooxy)diphenylsilan] as the compound, how does the “Wirkung gegen Rhino-Viren” value (Rhino-Viren) read?
Answer: Its value is “zeigen eine Wirkung”.

Question: And the “Wirkung auf Osteosarkome” value (Osteosarkome)?
Answer: Its value is “zeigen eine Wirkung”.

Question: Which IC50 (colo205 (Kofon-Karzinom); [6]) does the source give for CCCCCCCCCCCCC(=O)O[Si](OC(=O)CCCCCCCCCCCC)(c1ccccc1)c1ccccc1 [Si 7, Di (tridecanoyloxy) diphenylslan] here?
Answer: The IC50 was 125 µg/mL (≈ 205 µM).

Question: And the IC50 (T47D (Brustkrebs); up to 500 µg/ml)?
Answer: Its IC50 is 80 µg/mL (≈ 131 µM).

Question: What about the IC50 [4, 7] of the same compound?
Answer: The IC50 was 60 µg/mL (≈ 98.5 µM).

Question: What about the “Wirkung gegen Rhino-Viren” value (Rhino-Viren) of the same compound?
Answer: The value was “zeigen eine Wirkung”.

Question: What about the “Wirkung auf Osteosarkome” value (Osteosarkome) of the same compound?
Answer: Its value is “zeigen eine Wirkung”.

Question: How did the “Wirkung gegen Angiosarkome” value (Angiosarkome [3]) turn out when CC[Si](CC)(OC(=O)CNC(=O)CNC(=O)CNC(=O)CNC(=O)CNC(=O)CN)OC(=O)CNC(=O)CNC(=O)CNC(=O)CNC(=O)CNC(=O)CN [Diethyl bis(hexaglycyl)Silylester] was run?
Answer: The value was “zeigen eine Wirkung”.

Question: Which “Wirkung gegen die Metastasierung von Plattenepihtelkarzinomen oder Plasmozytomen” value [1] does the source give for CCCCCCCCCCCCCCCCC(=O)O[Si](C)(C)OC(=O)CCCCCCCCCCCCCCCC [Di(heptadecanoyloxy)dimethylslan] here?
Answer: Its value is “zeigen eine Wirkung”.

Question: Which results are given for CCCCCCCC/C=C\CCCCCCCC(=O)O[Si](OC(=O)CCCCCCC/C=C\CCCCCCCC)(c1ccccc1)c1ccccc1?
Answer: Wirkung gegen Rhino-Viren (Rhino-Viren): zeigen eine Wirkung; Wirkung auf Osteosarkome (Osteosarkome): zeigen eine Wirkung

Question: Which results are given for CCCCCCCCC(=O)O[Si](OC(=O)CCCCCCCC)(c1ccccc1)c1ccccc1 [Di(nonanoyloxy)diphenylsilan]?
Answer: Wirkung gegen Rhino-Viren (Rhino-Viren): zeigen eine Wirkung; Wirkung auf Osteosarkome (Osteosarkome): zeigen eine Wirkung

Question: What does the source list for CCCCC/C=C\C/C=C\CCCCCCCC(=O)O[Si](OC(=O)CCCCCCC/C=C\C/C=C\CCCCC)(c1ccccc1)c1ccccc1 [Di (linoylooxy)diphenylsilan]?
Answer: Wirkung gegen Rhino-Viren (Rhino-Viren): zeigen eine Wirkung; Wirkung auf Osteosarkome (Osteosarkome): zeigen eine Wirkung
